The values below come from US20260374818A1, “CATIONIC PEPTIDES WITH BROAD SPECTRUM ACTIVITY” (priority 2023, published 2026).

A word on the IC50: it is the concentration at which inhibition is half-maximal.

The test system of series [1] is peripheral blood mononuclear cells (PBMCs). Put plainly: Cytotoxicity (LDH release), PBMCs.
The subject of series [2] is MRSA preformed biofilms. The experiment in a line: Biofilm eradication of 24-hr preformed biofilms (TTC metabolic dye), MRSA. Format: cell-based, methicillin resistant Staphylococcus aureus. The conditions noted are these: 24-hr preformed biofilms treated overnight.
Series [3] in a line: Peptide aggregation in RPMI + 10% FBS with PBMCs (microscopy). Type of series: physicochemical. The conditions noted are these: overnight. The protocol: Peptide Aggregation: Peptide aggregation was assessed qualitatively by examining samples of peptides mixed with PBMCs following overnight incubation at 37 °C and 5% CO2. All samples were prepared in RPMI media containing 10% FBS the same manner as the cytotoxicity assays described above. Visualization of aggregates was done using a Nikon Eclipse TS100 Inverted Microscope at 10× magnification.
In aggregation studies, peptides were added to PBMCs in RPMI media containing 10% FBS and incubated overnight at 37 °C in 5% CO2.
The peptides were also evaluated for their tendency to aggregate when added to RPMI tissue culture media containing 10% fetal bovine serum in the presence of PBMCs. Peptides were added to PBMCs in RPMI media containing 10% FBS and incubated overnight at 37 °C in 5% CO2. […] Compared to a highly aggregation prone peptide, 1018 [Haney, E. F., et al. (2017). Aggregation and its influence on the immunomodulatory activity of synthetic innate defense regulator peptides.
As with the DJK-5 derivatives above, the AB103-D derivatives were evaluated for their tendency to aggregate when added to RPMI tissue culture media containing 10% fetal bovine serum in the presence of PBMCs. Peptides were added to PBMCs in RPMI media containing 10% FBS and incubated overnight at 37 °C in 5% CO2.

Series [4] relates to MRSA biofilms on human skin organoid. Put plainly: Skin organoid biofilm infection model, peptide solution, MRSA. Format: cell-based, methicillin resistant Staphylococcus aureus. The settings on record: peptide solution 4 hrs (FIG. 3A).
Series [5] concerns P. aeruginosa PAO1 biofilms. The conditions noted are these: for Biofilm growth inhibition: P. aeruginosa PAO1 (FIG. 20D); for minimum inhibitory concentration of peptide that inhibited at least 90% of biofilm growth (MBIC90): P. aeruginosa PAO1 biofilms, >95% pure peptides, BM2 minimal media; for More active than AB103-D against PAO1 biofilms: PAO1, >95% pure peptides.
Series [6] concerns human bronchiolar epithelial cells (HBEs). The experiment in a line: Cytotoxicity (LDH release), human bronchiolar epithelial cells. (In general: LDH in the medium is a marker of cell lysis.)
Series [7] deals with MRSA USA300. Put plainly: Murine sinusitis model, MRSA. The conditions noted are these: MRSA USA300, 0.1 mg dose, compared to DJK5. Type of series: in vivo, mouse; methicillin resistant Staphylococcus aureus. The source says:
(§1) FIGS. 15A-15I show peptides AB101-D, AB102-D and AB103-D compared to DJK5 in a murine sinusitis model of bacterial infections. MRSA USA300, nasal cavity (FIG. 15A) P. aeruginosa LESB58 (FIG. 15B and FIG. 15C, nasal cavity); MRSA USA300, lung tissue (FIG. 15D) P. aeruginosa LESB58 (FIG. 15E and FIG. 15F, lung tissue); and MRSA USA300, weight change (FIG. 15G) P. aeruginosa LESB58 (FIG. 15H and FIG. 15I, weight change).
(§2) A murine sinusitis model of bacterial infections in the nasal cavity of mice [Alford et al. (2021). Murine model of sinusitis infection for screening antimicrobial and immunomodulatory therapies. Frontiers in Cellular and Infection Microbiology., 11, 621081] was used to determine the efficacy of D-amino acid peptides AB101-D, AB102-D and AB103-D compared to DJK5. […]. Treatment was applied either as dropwise administration of a peptide solution (20 μl) to the infected naris of a mouse (FIGS. 15A, 15B, 15D, 15E, 15G, 15H) or peptide was delivered using a Respimat® inhaler device (FIGS. 15C, 15F, 15I). Mice were monitored and weighed once daily for up to three days then euthanized prior to collection of nasal lavage fluid and lung tissue for bacterial enumeration. The limit of detection is shown by the dotted line at log CFU=2. […] Accordingly, the results indicated enhanced efficacy of D-amino acid peptides AB101-D, AB102-D and AB103-D compared to DJK5 in this murine model.

Series [8] concerns PAO1 preformed biofilms. The conditions noted are these: read-out: Biofilm Eradication IC50; PAO1, 24-hr preformed biofilms treated overnight, TTC.
The test system of series [9] is N/TERT keratinocytes. The experiment in a line: Cytotoxicity (LDH release), N/TERT keratinocytes.
Series [10] has as its system MRSA USA300 biofilms. Put plainly: Biofilm inhibition by >95% pure peptides (crystal violet), MRSA. Type of series: cell-based, methicillin resistant Staphylococcus aureus. The conditions noted are these: for minimum inhibitory concentration of peptide that inhibited at least 90% of biofilm growth (MBIC90): MRSA USA300 biofilms, >95% pure peptides, 10% TSB + 0.1% glucose.

For series [11], the system named is 3-day-old oral plaque (multispecies) biofilms. Put plainly: Oral plaque biofilm model, long-term (1-3 days) exposure, dead cell volume. Format: cell-based. The conditions noted are these: 1 or 5 μg/ml, daily for 3 days, compared to DJK5 (FIG. 16A).
Series [12] has as its system PAO1 biofilms on human skin organoid. Put plainly: Skin organoid biofilm infection model, peptide solution, PAO1. Format: cell-based, Pseudomonas aeruginosa. The conditions noted are these: peptide solution 4 hrs (FIG. 3B).
Series [13] has as its system P. aeruginosa LESB58. The experiment in a line: Murine sinusitis model, P. aeruginosa. Type of series: in vivo, mouse; Pseudomonas aeruginosa. The conditions noted are these: P. aeruginosa LESB58, 0.1 mg dose, compared to DJK5.
Text: as §1, §2

The test system of series [14] is MRSA USA300 planktonic cells. The experiment in a line: Planktonic growth inhibition by pure AB103-D derivatives, MRSA. Format: cell-based, methicillin resistant Staphylococcus aureus. Here is the method: (§3) The effect of peptide on bacterial and biofilm growth was assessed using the biofilm inhibition assay [Haney, E. F., Trimble, M. J., & Hancock, R. E. W. (2021) FIGS. 20A-20D. Microtiter plate assays to assess antibiofilm activity against bacteria. Nature Protocols, 16(5), 2615-2632]. The effect of peptide on planktonic growth and biofilm growth of MRSA USA300 (FIG. 20A, FIG. 20C) and P. aeruginosa PAO1 (FIGS. 20B, 20D) was assessed and compared to the activity seen for AB103-D (gray stars) and DJK5 (gray open circles). Data shown are the average of three biological replicates. Error bars have been omitted for clarity. […]. The results indicated enhanced antibiofilm and antibacterial activity of AB103-D derivatives compared to DJK5.

The test system of series [15] is P. aeruginosa PAO1 biofilms. The experiment in a line: Biofilm inhibition by SPOT-synthesized AB103-D variants (crystal violet), P. aeruginosa. Format: cell-based, Pseudomonas aeruginosa. The settings on record: P. aeruginosa PAO1, SPOT peptides.
The test system of series [16] is P. aeruginosa PAO1 planktonic cells. The experiment in a line: Planktonic growth inhibition by pure AB103-D derivatives, P. aeruginosa. Format: cell-based, Pseudomonas aeruginosa. Here is the method:
as §3

The test system of series [17] is red blood cells. Put plainly: Hemolysis. Type of series: cell-based, human. The settings on record: 4 hours. The protocol:
Hemolysis: Peptide induced hemolysis was evaluated according to methods described previously [Hilchie, A. L., et al. (2016). Mastoparan is a membranolytic anti-cancer peptide that works synergistically with gemcitabine in a mouse model of mammary carcinoma. Biochimica Et Biophysica Acta, 1858(12), 3195-3204]. Briefly, red blood cells were obtained, with human ethics approval, from the blood of healthy volunteers collected in a sodium heparin tube and then rinsed three times in PBS, centrifuging between washes, to obtain the hematocrit (100% RBC). A 2.5% RBCs suspension was exposed to peptide at varying concentrations and incubated at 37 C in a 5% CO2 humidified atmosphere for 4 hours. Supernatants were collected following centrifugation (1100 rpm) and transferred to a flat bottom microtitre plate. The absorbance (490 nm) of each supernatant was measured on a BioTek Epoch Microplate Spectrophotometer. Percent hemolysis was calculated by comparing the absorbance arising from peptide treated cells to RBCs treated with […] (0% hemolysis) or lysed with 1% Triton X-100 (100% hemolysis).

Where [18] appears, read: 200 μg/ml or highest concentration.

Where a SMILES comes first, the peptide text is derived from it. [ ]: non-standard residue; d: D form.

With `CC[C@@H](C)[C@@H](NC(=O)[C@@H](CCCNC(=N)N)NC(=O)[C@@H](CCCCN)NC(=O)[C@@H](CCCNC(=N)N)NC(=O)[C@H](NC(=O)[C@H](NC(=O)[C@@H](CCCNC(=N)N)NC(=O)[C@H](NC(=O)[C@H](N)CCCNC(=N)N)C(C)C)C(C)C)[C@H](C)CC)C(=O)N[C@H](CCCNC(=N)N)C(=O)N[C@H](Cc1c[nH]c2ccccc12)C(=O)N[C@@H](C(N)=O)C(C)C` [AB102-D, rvrvirkrirwv-NH2] (H-[dR][dV][dR][dV][dI][dR][dK][dR][dI][dR][dW][dV]-NH2), the “Cytotoxicity (LDH)” value in series [1], in [6] and in [9] was “low toxicity” each time. The IC50 amounted to 3.7 µM in series [2]; 16.5 µM in series [5] (read-out: Biofilm Inhibition IC50, PAO1, 24 hours, crystal violet); 23 µM in series [8]; 0.15 µM in [10] (MRSA, 24 hours). Besides, the Peptide aggregation entry in series [3] (50 μg/ml) is “No appreciable aggregation”. In addition, the “Antibiofilm activity on skin organoid” value in series [4] and in [12] was “excellent antibiofilm activity” throughout. The “Bacteria in nasal cavity and lungs” value in series [7] is “reduced the amount of bacteria in the nasal cavity and lungs of mice much more than DJK5 treatment”; in [13] it was “reduced the amount of bacteria in the nasal cavity and lungs of mice much more than DJK5 treatment”. In addition, in [11], the “Proportion of dead biofilm cells” value is recorded as “killed more of the biofilm cells”.
With `CC[C@@H](C)[C@@H](NC(=O)[C@@H](CCCNC(=N)N)NC(=O)[C@@H](CCCNC(=N)N)NC(=O)[C@@H](Cc1c[nH]c2ccccc12)NC(=O)[C@@H](CCC(N)=O)NC(=O)[C@H](NC(=O)[C@@H](CCCNC(=N)N)NC(=O)[C@H](NC(=O)[C@H](NC(=O)[C@@H](CCCNC(=N)N)NC(=O)[C@H](NC(=O)[C@H](N)CCCNC(=N)N)C(C)C)C(C)C)[C@H](C)CC)C(C)C)C(N)=O` [AB113-D, rvrvirvqwrri] (H-[dR][dV][dR][dV][dI][dR][dV][dQ][dW][dR][dR][dI]-NH2), the Planktonic growth inhibition entry in [14] was “among the most active against planktonic cells”; in series [16], “among the most active”. The “Activity against PAO1 biofilms compared to AB103-D” value (“Activity … compared to AB103-D” below) in [15] is recorded as “activity superior to that of AB103-D”. For the same compound, the Biofilm growth inhibition entry in series [5] is “among the most active”. Moreover, the “minimum inhibitory concentration of peptide that inhibited at least 90% of biofilm growth (MBIC90)” value in [5] (crystal violet) was determined as 2 µM; in series [10], 0.5 µM. Also, the “More active than AB103-D against PAO1 biofilms” value (from here on “More active than AB103-D”) in series [5] is reported as “up to 4 fold”.
Turning to `CC[C@@H](C)[C@@H](NC(=O)[C@H](NC(=O)[C@@H](CCCNC(=N)N)NC(=O)[C@@H](Cc1c[nH]c2ccccc12)NC(=O)[C@@H](CCC(N)=O)NC(=O)[C@H](NC(=O)[C@@H](CCCNC(=N)N)NC(=O)[C@H](NC(=O)[C@H](NC(=O)[C@@H](CCCNC(=N)N)NC(=O)[C@H](NC(=O)[C@H](N)CCCNC(=N)N)C(C)C)C(C)C)[C@H](C)CC)C(C)C)[C@H](C)CC)C(N)=O` [AB112-D, rvrvirvqwrii] (H-[dR][dV][dR][dV][dI][dR][dV][dQ][dW][dR][dI][dI]-NH2), in series [15], the “Activity … compared to AB103-D” value is “activity superior to that of AB103-D”. In addition, the values for the Peptide aggregation result in series [3] (50 μg/ml) and in series [3] (setting [18]) were “peptide aggregation was again observed” and “strongly aggregated”, respectively. Further, the Biofilm growth inhibition entry in [5] was “among the most active”. Also, the “minimum inhibitory concentration of peptide that inhibited at least 90% of biofilm growth (MBIC90)” value in [5] (crystal violet) worked out at 2 µM; in series [10] it was 1 µM. Besides, in series [5], the “More active than AB103-D” value is given as “up to 4 fold”. Also, the Planktonic growth inhibition entry in series [16] is recorded as “among the most active”.
Take `CC[C@@H](C)[C@@H](NC(=O)[C@@H](C)NC(=O)[C@@H](CCCNC(=N)N)NC(=O)[C@@H](Cc1c[nH]c2ccccc12)NC(=O)[C@@H](CCC(N)=O)NC(=O)[C@H](NC(=O)[C@@H](CCCNC(=N)N)NC(=O)[C@H](NC(=O)[C@H](NC(=O)[C@@H](Cc1c[nH]c2ccccc12)NC(=O)[C@H](NC(=O)[C@H](N)CCCNC(=N)N)C(C)C)C(C)C)[C@H](C)CC)C(C)C)C(N)=O` [AB109-D, rvwvirvqwrai] (H-[dR][dV][dW][dV][dI][dR][dV][dQ][dW][dR][dA][dI]-NH2): the “Cytotoxicity (LDH)” value in series [1] is listed as “most toxic towards PBMCs at the highest peptide concentration evaluated of 200 μg/ml”. Also, the Hemolysis entry in series [17] was “substantial hemolysis at concentrations higher than 25 μg/ml”. For the same compound, in series [15], the “Activity … compared to AB103-D” value is given as “activity superior to that of AB103-D”. In addition, the Peptide aggregation entry is recorded as “peptide aggregation was again observed” in [3] (50 μg/ml) and “strongly aggregated” in series [3] (setting [18]). Moreover, the Biofilm growth inhibition entry in series [5] was “among the most active”. Further, the “minimum inhibitory concentration of peptide that inhibited at least 90% of biofilm growth (MBIC90)” value in series [5] (crystal violet) came to 2 µM; in [10], 1 µM. Moreover, in [5], the “More active than AB103-D” value is reported as “up to 4 fold”. Also, in [16], the Planktonic growth inhibition result is listed as “among the most active”.
